# Laboratory results published in US20200055817A1 (AbbVie Deutschland GmbH & Co. KG, priority 2016, published 2020).
# What was measured:
# Assay type in all cases: cell-based
# [1] = target: T1, human EDG8 (S1PR5) receptor (Homo sapiens, UniProt Q9H228); test: Aequorin assay, agonist potency, CHO-A21-EDG8#12 cells; conditions: agonist mode, aequorin luminescence; read-out: S1P5 EC50 range #
# T1 construct: carries the transgenes human EDG8 (S1PR5) receptor (Acession number NP_110387.1); expressed in transfected cells; host or cells: CHO-A21-EDG8#12 (CHO clone co-expressing mitochondrial aequorin and chimaeric Gaqi5)
# T1 sequence (Q9H228 whole entry): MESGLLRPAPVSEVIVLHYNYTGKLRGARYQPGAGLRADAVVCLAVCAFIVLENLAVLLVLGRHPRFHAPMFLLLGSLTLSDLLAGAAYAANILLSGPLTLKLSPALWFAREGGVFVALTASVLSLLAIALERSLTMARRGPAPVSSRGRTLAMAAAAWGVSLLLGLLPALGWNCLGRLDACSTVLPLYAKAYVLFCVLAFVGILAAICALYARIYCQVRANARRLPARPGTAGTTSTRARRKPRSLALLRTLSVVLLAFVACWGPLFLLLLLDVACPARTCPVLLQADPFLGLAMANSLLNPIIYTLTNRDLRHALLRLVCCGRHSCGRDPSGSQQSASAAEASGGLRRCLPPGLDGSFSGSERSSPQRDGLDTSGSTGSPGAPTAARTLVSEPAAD
# Outline: (§1)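 CHO cells coexpressing receptor, mitochondrial aequorin and Gαqi5 (S1P3 pool: GNA16) were loaded overnight at RT with 5 μM coelenterazine h in 0.1% fatty-acid-free BSA buffer. Cells were injected onto compound, luminescence recorded 90 s and integrated, normalised to digitonin or 20 μM ATP; sigmoidal fit.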
# [2] = target: T2, S1P4 (Homo sapiens, UniProt O95977); test: Aequorin assay, agonist potency, S1P4; conditions: agonist mode, aequorin luminescence
# T2 sequence (O95977 1-384): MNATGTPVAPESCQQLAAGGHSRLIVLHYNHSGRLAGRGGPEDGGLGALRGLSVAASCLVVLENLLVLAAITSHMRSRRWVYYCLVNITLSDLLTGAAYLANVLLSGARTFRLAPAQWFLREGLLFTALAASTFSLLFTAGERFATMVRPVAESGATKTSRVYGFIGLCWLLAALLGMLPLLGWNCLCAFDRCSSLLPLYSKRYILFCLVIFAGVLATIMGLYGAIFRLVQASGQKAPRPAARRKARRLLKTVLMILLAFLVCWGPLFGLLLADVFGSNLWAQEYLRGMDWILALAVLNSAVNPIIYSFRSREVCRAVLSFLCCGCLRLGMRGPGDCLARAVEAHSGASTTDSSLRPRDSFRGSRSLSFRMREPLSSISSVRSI
# Outline: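 Aequorin luminescence read over 90 s after adding coelenterazine h–loaded cells (5 μM, overnight, RT) to test compound in phenol red-free DMEM/F12 buffer containing 0.1% fatty acid-free BSA. Responses integrated, scaled to the 100% signal from 100 μM digitonin or 20 μM ATP, and fitted to a sigmoidal dose-response model.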
# [3] = target: T3, human EDG1 (S1PR1) receptor (Homo sapiens, UniProt P21453); test: Aequorin assay, agonist potency, CHO-A21-Edg1#17 cells; conditions: agonist mode, aequorin luminescence; read-out: S1P1 EC50
# T3 construct: expressed in transfected cells; host or cells: CHO-A21-Edg1#17 (CHO clone co-expressing mitochondrial aequorin and chimaeric Gaqi5)
# T3 sequence (P21453 whole entry): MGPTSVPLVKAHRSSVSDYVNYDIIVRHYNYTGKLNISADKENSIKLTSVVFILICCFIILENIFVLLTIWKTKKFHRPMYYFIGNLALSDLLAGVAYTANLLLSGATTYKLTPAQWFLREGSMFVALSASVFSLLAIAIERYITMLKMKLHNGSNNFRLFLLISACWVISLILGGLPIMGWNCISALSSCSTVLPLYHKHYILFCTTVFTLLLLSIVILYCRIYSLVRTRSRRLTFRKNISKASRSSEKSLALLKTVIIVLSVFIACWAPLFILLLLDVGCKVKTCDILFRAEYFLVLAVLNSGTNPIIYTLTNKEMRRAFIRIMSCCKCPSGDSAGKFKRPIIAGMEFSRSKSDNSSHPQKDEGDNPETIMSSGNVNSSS
# Outline: as §1
Compound,EC50 [1] [nM],EC50 [2] [nM],EC50 [3] [nM]
"O=C(O)C1(CN2CC3(Cc4ccc(OCc5cc(F)ccc5C(F)(F)F)cc4C3)C2)CC1 [Example 43, 1-((5′-((5-fluoro-2-(trifluoromethyl)benzyl)oxy)-1′,3′-dihydrospiro[azetidine-3,2′-inden]-1-yl)methyl)cyclopropanecarboxylic acid Compound with 2,2,2-trifluoroacetic acid (1:1)]",1000 to 10000,< 1000,> 1000
"O=C(O)CN1CC2(Cc3ccc(OC4CCc5cccc(Cl)c54)cc3C2)C1 (stereo not drawn) [Example 67, 2-(5′-((7-chloro-2,3-dihydro-1H-inden-1-yl)oxy)-1′,3′-dihydrospiro[azetidine-3,2′-inden]-1-yl)acetic acid]",≤ 10,< 1000,> 1000
"CCOc1ccc(COc2ccc3c(c2)CC2(C3)CN(C3CC(C(=O)O)C3)C2)c(F)c1F (stereo not drawn) [Example 86, 3-(5′-((4-ethoxy-2,3-difluorobenzyl)oxy)-1′,3′-dihydrospiro[azetidine-3,2′-inden]-1-yl)cyclobutanecarboxylic acid]",1000 to 10000,< 1000,> 1000
"CC(Oc1ccc(C#Cc2ccc3c(c2)CC2(C3)CN(CC3(C(=O)O)CC3)C2)cn1)C(F)(F)F (stereo not drawn) [Example 117, 1-((5′-((6-((1,1,1-trifluoropropan-2-yl)oxy)pyridin-3-yl)ethynyl)-1′,3′-dihydrospiro[azetidine-3,2′-inden]-1-yl)methyl)cyclopropanecarboxylic acid]",≤ 10,> 1000,< 1000
"O=C(O)C1(CN2CC3(Cc4ccc(OCC5CCCCC5)cc4C3)C2)CC1 [Example 126, 1-((5′-(cyclohexylmethoxy)-1′,3′-dihydrospiro[azetidine-3,2′-inden]-1-yl)methyl)cyclopropanecarboxylic acid]",100 to 1000,< 1000,> 1000
"O=C(O)CN1CC2(Cc3ccc(OC4Cc5ccccc5C4)cc3C2)C1 [Example 73, 2-(5′-((2,3-dihydro-1H-inden-2-yl)oxy)-1′,3′-dihydrospiro[azetidine-3,2′-inden]-1-yl)acetic acid]",100 to 1000,< 1000,> 1000
"CC1CCC(C#Cc2ccc3c(c2)CC2(C3)CN(CC3(C(=O)O)CC3)C2)CC1 (mixture of isomers) [Example 115, 1-((5′-((4-methylcyclohexyl)ethynyl)-1′,3′-dihydrospiro[azetidine-3,2′-inden]-1-yl)methyl)cyclopropanecarboxylic acid]",≤ 10,< 1000,> 1000
"O=C(O)CN1CC2(Cc3ccc(OC4CCc5cc(Cl)cc(Cl)c54)cc3C2)C1 (stereo not drawn) [Example 69, 2-(5′-((5,7-dichloro-2,3-dihydro-1H-inden-1-yl)oxy)-1′,3′-dihydrospiro[azetidine-3,2′-inden]-1-yl)acetic acid]",≤ 10,< 1000,> 1000
"CC(C)Oc1ccc(CCc2ccc3c(c2)CC2(C3)CN(CC3(C(=O)O)CC3)C2)cn1 [Example 119, 1-((5′-(2-(6-isopropoxypyridin-3-yl)ethyl)-1′,3′-dihydrospiro[azetidine-3,2′-inden]-1-yl)methyl)cyclopropanecarboxylic acid]",1000 to 10000,> 1000,> 1000
"CC(Oc1ccc(C#Cc2ccc3c(c2)CC2(C3)CN(C3CC(C(=O)O)C3)C2)cn1)C(F)(F)F (stereo not drawn) [Example 103, 3-(5′-((6-((1,1,1-trifluoropropan-2-yl)oxy)pyridin-3-yl)ethynyl)-1′,3′-dihydrospiro[azetidine-3,2′-inden]-1-yl)cyclobutanecarboxylic acid]",≤ 10,< 1000,< 1000
"O=C(O)C1(CN2CC3(Cc4ccc(OCc5c(F)cccc5Cl)cc4C3)C2)CC1 [Example 34, 1-((5′-((2-chloro-6-fluorobenzyl)oxy)-1′,3′-dihydrospiro[azetidine-3,2′-inden]-1-yl)methyl)cyclopropanecarboxylic acid compound with 2,2,2-trifluoroacetic acid (1:1)]",1000 to 10000,< 1000,> 1000
